The results in this text go back to patent publication US20070128217A1 (priority 2003, published 2007).

Assay [1] has as its system antibodies in sera from SARS patients (sera 1a, 1b, 2, 6, 37, 62, London, SARS-yellow, SARS-green). It counts as binding, human. On the set-up: Binding of serum 6 to linear peptides of protein X1 of SARS-CoV Urbani / Binding of serum 37 to linear peptides of protein X1 of SARS-CoV Urbani / Binding of serum 6 to looped/cyclic peptide (PEPSCAN-ELISA) / Binding of serum 37 to looped/cyclic peptide (PEPSCAN-ELISA) / Binding of serum 37 to looped/cyclic peptides of protein X1 of SARS-CoV Urbani / Binding of serum 6 to linear peptides of protein X2 / Binding of serum 37 to linear peptides of protein X2 / Binding of serum 37 to looped/cyclic peptides of protein X2 of SARS-CoV Urbani / Binding of serum 6 to linear peptides of protein M of SARS-CoV Urbani / Binding of serum 37 to linear peptides of protein M of SARS-CoV Urbani / Binding of serum 6 to looped/cyclic peptides of protein M of SARS-CoV Urbani / Binding of serum 37 to looped/cyclic peptides of protein M of SARS-CoV Urbani / Binding of serum 6 to linear peptides of protein X3 of SARS-CoV Urbani / Binding of serum 37 to linear peptides of protein X3 of SARS-CoV Urbani / Binding of serum 37 to looped/cyclic peptides of protein X3 of SARS-CoV Urbani / Binding of serum 6 to linear peptides of protein X4 of SARS-CoV Urbani / Binding of serum 37 to linear peptides of protein X4 of SARS-CoV Urbani / Binding of serum 37 to looped/cyclic peptides of protein X4 of SARS-CoV Urbani / Binding of serum 6 to linear peptides of protein X5 of SARS-CoV Urbani / Binding of serum 37 to linear peptides of protein X5 of SARS-CoV Urbani / Binding of serum 37 to looped/cyclic peptides of protein X5 of SARS-CoV Urbani / Binding of serum 6 to linear peptides of protein N of SARS-CoV Urbani / Binding of serum 37 to linear peptides of protein N of SARS-CoV Urbani / Binding of serum 6 to linear peptide (PEPSCAN-ELISA) / Binding of serum 1a to looped/cyclic peptides of protein N of SARS-CoV Urbani / Binding of serum 1b to looped/cyclic peptides of protein N of SARS-CoV Urbani / Binding of serum 2 to looped/cyclic peptides of protein N of SARS-CoV Urbani / Binding of serum 6 to looped/cyclic peptides of protein N of SARS-CoV Urbani / Binding of serum 37 to looped/cyclic peptides of protein N of SARS-CoV Urbani / Binding of serum 62 to looped/cyclic peptides of protein N of SARS-CoV Urbani / Binding of serum London to looped/cyclic peptides of protein N of SARS-CoV Urbani / Binding of serum SARS-green to looped/cyclic peptides of protein N of SARS-CoV Urbani: unit not given here.

Assay [2] deals with control sera (pooled serum of ten healthy LUMC hospital workers; commercial negative donor pooled serum from the Dutch bloodbank). The class given is binding, human. On the set-up: Binding of Control serum LUMC to linear peptides / Binding of Control serum Blood-bank to linear peptides / Binding of Control serum LUMC to looped peptides / Binding of Control Serum Blood-Bank to Looped peptides / Binding of Control serum LUMC to linear peptides of the protein M of SARS-CoV Urbani / Binding of Control serum Blood-bank to linear peptides of the protein M of SARS-CoV Urbani / Binding of Control serum LUMC to looped peptides of the protein M of SARS-CoV Urbani / Binding of Control Serum Blood-Bank to Looped peptides of the protein M of SARS-CoV Urbani: unit not given here.

For assay [3], the system named is rabbit serum obtained by immunizing a rabbit with the SARS-CoV strain Frankfurt 1. It counts as binding. Also noted: Binding of a rabbit serum to linear peptides / Binding of a rabbit serum to looped peptides / Rabbit serum linear peptides / Rabbit serum looped peptides / Binding of a rabbit serum to linear peptides of protein N of SARS-CoV Urbani (Rabbit serum linear peptides) / Binding of a rabbit serum to looped/cyclic peptides of protein N of SARS-CoV Urbani (Rabbit serum looped peptides): unit not given here.

Assay [4] concerns recombinant human anti-SARS-CoV antibody 03-018. The class given is binding. On the set-up: Binding of antibody 03-018 to linear peptides of the N protein of SARS-CoV Urbani / Binding of antibody 03-018 to looped/cyclic peptides of the N protein of SARS-CoV Urbani: unit not given here.

For RQGTDYKHWPQIAQF, in assay [1], the “Binding of serum 1a to linear peptides of protein N of SARS-CoV Urbani” value worked out at 0.3, the “Binding of serum 1a to looped/cyclic peptides of protein N of SARS-CoV Urbani” value amounted to 0.5, the “Binding of serum 1b to linear peptides of protein N of SARS-CoV Urbani” value turned out to be 0.2 and the “Binding of serum 1b to looped/cyclic peptides of protein N of SARS-CoV Urbani” value came out at 0.4. Further, in assay [1], the “Binding of serum 2 to linear peptides of protein N of SARS-CoV Urbani” value worked out at 0.2, the “Binding of serum 2 to looped/cyclic peptides of protein N of SARS-CoV Urbani” value is reported as 0.5, the “Binding of serum 6 to linear peptides of protein N of SARS-CoV Urbani” value is on record as 0.2 and the “Binding of serum 6 to looped/cyclic peptides of protein N of SARS-CoV Urbani” value is 0.3. Further, in assay [1], the “Binding of serum 37 to linear peptides of protein N of SARS-CoV Urbani” value is 0.7, the “Binding of serum 37 to looped/cyclic peptides of protein N of SARS-CoV Urbani” value stood at 0.8, the “Binding of serum 62 to linear peptides of protein N of SARS-CoV Urbani” value is recorded as 0.8 and the “Binding of serum 62 to looped/cyclic peptides of protein N of SARS-CoV Urbani” value is on record as 0.9. In assay [1], the “Binding of serum London to linear peptides of protein N of SARS-CoV Urbani” value is 0.7, the “Binding of serum London to looped/cyclic peptides of protein N of SARS-CoV Urbani” value was found to be 0.5, the “Binding of serum SARS-green to linear peptides of protein N of SARS-CoV Urbani” value was 0.3 and the “Binding of serum SARS-green to looped/cyclic peptides of protein N of SARS-CoV Urbani” value is 0.4. Moreover, in assay [1], the “Binding of serum SARS-yellow to linear peptides of protein N of SARS-CoV Urbani” value turned out to be 0.6 and the “Binding of serum SARS-yellow to looped/cyclic peptides of protein N of SARS-CoV Urbani” value is on record as 0.8. Besides, in assay [2], the “Binding of Control Serum Blood-Bank to Looped peptides” value is given as 0.7, the “Binding of Control serum Blood-bank to linear peptides” value came to 0.7, the “Binding of Control serum LUMC to linear peptides” value is reported as 0.7 and the “Binding of Control serum LUMC to looped peptides” value is on record as 0.8. In assay [3], the “Binding of a rabbit serum to linear peptides of protein N of SARS-CoV Urbani (Rabbit serum linear peptides)” value (from here on “Binding … (Rabbit serum linear peptides)”) is listed as 0.2 and the “Binding of a rabbit serum to looped/cyclic peptides of protein N of SARS-CoV Urbani (Rabbit serum looped peptides)” value is reported as 0.4. In assay [4], the “Binding of antibody 03-018 to linear peptides of the N protein of SARS-CoV Urbani” value stood at 0.1 and the “Binding of antibody 03-018 to looped/cyclic peptides of the N protein of SARS-CoV Urbani” value amounted to 0.2.

With RQKKQPTVTLLPAAD, in assay [1], the “Binding of serum 1a to linear peptides of protein N of SARS-CoV Urbani” value is reported as 0.3, the “Binding of serum 1b to linear peptides of protein N of SARS-CoV Urbani” value is listed as 0.2, the “Binding of serum 2 to linear peptides of protein N of SARS-CoV Urbani” value is given as 0.2 and the “Binding of serum 6 to linear peptides of protein N of SARS-CoV Urbani” value was 0.2. Besides, in assay [1], the “Binding of serum 37 to linear peptides of protein N of SARS-CoV Urbani” value is recorded as 0.7, the “Binding of serum 62 to linear peptides of protein N of SARS-CoV Urbani” value came to 0.8, the “Binding of serum London to linear peptides of protein N of SARS-CoV Urbani” value is 0.6 and the “Binding of serum SARS-green to linear peptides of protein N of SARS-CoV Urbani” value is listed as 0.6. In assay [1], the “Binding of serum SARS-yellow to linear peptides of protein N of SARS-CoV Urbani” value is on record as 0.6; the “Recognition of the peptide by sera of SARS-CoV infected individuals, and form (linear, looped/cyclic) in which it is recognized” value is “recognized in looped/cyclic form”. In addition, in assay [2], the “Control Serum Blood-Bank Looped peptides” value came to 0.6, the “Control serum Blood-bank linear peptides” value was found to be 0.7, the “Control serum LUMC linear peptides” value was determined as 0.8 and the “Control serum LUMC looped peptides” value is on record as 0.5. Moreover, in assay [3], the “Binding … (Rabbit serum linear peptides)” value stood at 0.1 and the “Binding of a rabbit serum to looped/cyclic peptides of protein N of SARS-CoV Urbani (Rabbit serum looped peptides)” value worked out at 0.4. Besides, in assay [4], the “Binding of antibody 03-018 to linear peptides of the N protein of SARS-CoV Urbani” value turned out to be 0.1 and the “Binding of antibody 03-018 to looped/cyclic peptides of the N protein of SARS-CoV Urbani” value amounted to 0.2.

RRATRRVRGGDGKMK: in assay [1], the “Binding of serum 1a to linear peptides of protein N of SARS-CoV Urbani” value is reported as 0.2, the “Binding of serum 1a to looped/cyclic peptides of protein N of SARS-CoV Urbani” value is 0.2, the “Binding of serum 1b to linear peptides of protein N of SARS-CoV Urbani” value was 0.1 and the “Binding of serum 1b to looped/cyclic peptides of protein N of SARS-CoV Urbani” value is given as 0.1. Also, in assay [1], the “Binding of serum 2 to linear peptides of protein N of SARS-CoV Urbani” value is reported as 0.3, the “Binding of serum 2 to looped/cyclic peptides of protein N of SARS-CoV Urbani” value came out at 0.1, the “Binding of serum 6 to linear peptides of protein N of SARS-CoV Urbani” value came out at 0.3 and the “Binding of serum 6 to looped/cyclic peptides of protein N of SARS-CoV Urbani” value is given as 0.1. In assay [1], the “Binding of serum 37 to linear peptides of protein N of SARS-CoV Urbani” value was 0.8, the “Binding of serum 37 to looped/cyclic peptides of protein N of SARS-CoV Urbani” value is reported as 0.4, the “Binding of serum 62 to linear peptides of protein N of SARS-CoV Urbani” value is reported as 0.7 and the “Binding of serum 62 to looped/cyclic peptides of protein N of SARS-CoV Urbani” value was 0.3. Besides, in assay [1], the “Binding of serum London to linear peptides of protein N of SARS-CoV Urbani” value was 0.5, the “Binding of serum London to looped/cyclic peptides of protein N of SARS-CoV Urbani” value was 0.2, the “Binding of serum SARS-green to linear peptides of protein N of SARS-CoV Urbani” value is recorded as 0.3 and the “Binding of serum SARS-green to looped/cyclic peptides of protein N of SARS-CoV Urbani” value is reported as 0.0. In assay [1], the “Binding of serum SARS-yellow to linear peptides of protein N of SARS-CoV Urbani” value is 0.6 and the “Binding of serum SARS-yellow to looped/cyclic peptides of protein N of SARS-CoV Urbani” value is recorded as 0.2. In assay [2], the “Binding of Control Serum Blood-Bank to Looped peptides” value is on record as 0.4, the “Binding of Control serum Blood-bank to linear peptides” value is recorded as 0.8, the “Binding of Control serum LUMC to linear peptides” value is 0.8 and the “Binding of Control serum LUMC to looped peptides” value was 0.3. Besides, in assay [3], the “Binding … (Rabbit serum linear peptides)” value is 0.6 and the “Binding of a rabbit serum to looped/cyclic peptides of protein N of SARS-CoV Urbani (Rabbit serum looped peptides)” value amounted to 0.1. Further, in assay [4], the “Binding of antibody 03-018 to linear peptides of the N protein of SARS-CoV Urbani” value is 0.1 and the “Binding of antibody 03-018 to looped/cyclic peptides of the N protein of SARS-CoV Urbani” value is 0.2.

RRGPEQTQGNFGDQD: in assay [1], the “Binding of serum 1a to looped/cyclic peptides of protein N of SARS-CoV Urbani” value is reported as 0.3, the “Binding of serum 1b to looped/cyclic peptides of protein N of SARS-CoV Urbani” value was 0.2, the “Binding of serum 2 to looped/cyclic peptides of protein N of SARS-CoV Urbani” value was 0.2 and the “Binding of serum 6 to looped/cyclic peptides of protein N of SARS-CoV Urbani” value turned out to be 0.1. In addition, in assay [1], the “Binding of serum 37 to looped/cyclic peptides of protein N of SARS-CoV Urbani” value came out at 0.4, the “Binding of serum 62 to looped/cyclic peptides of protein N of SARS-CoV Urbani” value is recorded as 0.2, the “Binding of serum London to looped/cyclic peptides of protein N of SARS-CoV Urbani” value was found to be 0.2 and the “Binding of serum SARS-green to looped/cyclic peptides of protein N of SARS-CoV Urbani” value came to 0.6. Moreover, in assay [1], the “Binding of serum SARS-yellow to looped/cyclic peptides of protein N of SARS-CoV Urbani” value was 0.4; the “Recognition of the peptide by sera of SARS-CoV infected individuals, and form (linear, looped/cyclic) in which it is recognized” value is given as “recognized in linear form”. For the same sequence, in assay [2], the “Binding of Control Serum Blood-Bank to Looped peptides” value stood at 0.3, the “Binding of Control serum Blood-bank to linear peptides” value was 0.6, the “Binding of Control serum LUMC to linear peptides” value was determined as 0.6 and the “Binding of Control serum LUMC to looped peptides” value came out at 0.4. Also, in assay [3], the “Binding … (Rabbit serum linear peptides)” value was 0.1 and the “Binding of a rabbit serum to looped/cyclic peptides of protein N of SARS-CoV Urbani (Rabbit serum looped peptides)” value was found to be 0.1. For the same sequence, in assay [4], the “Binding of antibody 03-018 to linear peptides of the N protein of SARS-CoV Urbani” value is on record as 0.1 and the “Binding of antibody 03-018 to looped/cyclic peptides of the N protein of SARS-CoV Urbani” value is given as 0.2.
